This experiment concerns the target T1, Nav1.7 (or SCN9A) channel (Homo sapiens, UniProt Q15858).
T1 construct: expressed in transfected cells
As to the kind of experiment: Nav1.7 (hSCN9A) block in HEK cells, PatchXpress 7000 automated electrophysiology, estimated IC50 (EIC50). Format: cell-based. To be noted: PatchXpress assay; HEK cells stably transfected with hSCN9A, voltage-clamped at V1/2 of inactivation. On the procedure:
The ability of the compounds of formula (I) to block the Nav1.7 (or SCN9A) channel were measured using the assay described below.
Human Embryonic Kidney (HEK) cells were transfected with an hSCN9A construct using lipofectamine reagent (Invitrogen), using standard techniques. Cells stably expressing the hSCN9A constructs were identified by their resistance to G-418 (400 μg/ml). Clones were screened for expression using the whole-cell voltage-clamp technique.
HEK cells stably transfected with hSCN9A were maintained in DMEM medium supplemented with 10% heat-inactivated fetal bovine serum and 400 μg/ml G-418 in an incubator at 37° C. with a humidified atmosphere of 10% CO2. For HTS, cells were harvested from flasks by trypsinization and replated in an appropriate multi-well plate (typically 96 or 384 wells/plate) such that confluence would be achieved within 24 hours of plating. For electrophysiological studies, cells were removed from the culture flask by brief trypsinization and re-plated at low density onto glass cover slips. Cells were typically used for electrophysiological experiments within 24 to 72 hours after plating.
HEK cells stably transfected with hSCN9A were viewed under Hoffman contrast optics and placed in front of an array of flow pipes emitting either control or compound-containing extracellular solutions. All compounds were dissolved in dimethyl sulfoxide to make 10 mM stock solutions, which were then diluted into extracellular solution to attain the final concentrations desired. […] The voltage-dependence of inactivation was determined by applying a series of depolarizing prepulses (8 sec long in 10 mV increments) from a negative holding potential. The voltage was then immediately stepped to 0 mV to assess the magnitude of the sodium current. Currents elicited at 0 mV were plotted as a function of prepulse potential to allow estimation of the voltage at which 50% of the channels were inactivated (midpoint of inactivation or V1/2). Compounds were tested for their ability to inhibit hSCN9A sodium channels by activating the channel with a 20 msec voltage step to 0 mV following an 8 second conditioning prepulse to the empirically determined V1/2. Compound effect (% inhibition) was determined by difference in current amplitude before and after application of test compounds. For ease of comparison, “estimated IC-50” (EIC50) values were calculated from single point electrophysiology data by the following equation, (tested concentration, uM) X (100-% inhibition/% inhibition). Inhibition values <20% and >80% were excluded from the calculation.
Electrophysiological assays were conducted with PatchXpress 7000 hardware and associated software (Molecular Devices Corp). All assay buffers and solutions were identical to those used in conventional whole-cell voltage clamp experiments described above. hSCN9A cells were grown as above to 50%-80% confluency and harvested by trypsinization. Trypsinized cells were washed and resuspended in extracellular buffer at a concentration of 1×10^6 cells/ml. The onboard liquid handling facility of the PatchXpress was used for dispensing cells and application of test compounds. Determination of the voltage midpoint of inactivation was as described for conventional whole-cell recordings. Cells were then voltage-clamped to the empirically determined V1/2 and current was activated by a 20 msec voltage step to 0 mV.
Compounds of the Examples were tested in the assays described above and found to have the Nav1.7 EIC50 (μM) values specified in the table below. All data are derived from the PatchXpress assay unless explicitly stated otherwise.

Counter-ions that a name gives are not always drawn.

For orientation: IC50 means the concentration needed to halve the response being measured.

T1 sequence (Q15858 whole entry): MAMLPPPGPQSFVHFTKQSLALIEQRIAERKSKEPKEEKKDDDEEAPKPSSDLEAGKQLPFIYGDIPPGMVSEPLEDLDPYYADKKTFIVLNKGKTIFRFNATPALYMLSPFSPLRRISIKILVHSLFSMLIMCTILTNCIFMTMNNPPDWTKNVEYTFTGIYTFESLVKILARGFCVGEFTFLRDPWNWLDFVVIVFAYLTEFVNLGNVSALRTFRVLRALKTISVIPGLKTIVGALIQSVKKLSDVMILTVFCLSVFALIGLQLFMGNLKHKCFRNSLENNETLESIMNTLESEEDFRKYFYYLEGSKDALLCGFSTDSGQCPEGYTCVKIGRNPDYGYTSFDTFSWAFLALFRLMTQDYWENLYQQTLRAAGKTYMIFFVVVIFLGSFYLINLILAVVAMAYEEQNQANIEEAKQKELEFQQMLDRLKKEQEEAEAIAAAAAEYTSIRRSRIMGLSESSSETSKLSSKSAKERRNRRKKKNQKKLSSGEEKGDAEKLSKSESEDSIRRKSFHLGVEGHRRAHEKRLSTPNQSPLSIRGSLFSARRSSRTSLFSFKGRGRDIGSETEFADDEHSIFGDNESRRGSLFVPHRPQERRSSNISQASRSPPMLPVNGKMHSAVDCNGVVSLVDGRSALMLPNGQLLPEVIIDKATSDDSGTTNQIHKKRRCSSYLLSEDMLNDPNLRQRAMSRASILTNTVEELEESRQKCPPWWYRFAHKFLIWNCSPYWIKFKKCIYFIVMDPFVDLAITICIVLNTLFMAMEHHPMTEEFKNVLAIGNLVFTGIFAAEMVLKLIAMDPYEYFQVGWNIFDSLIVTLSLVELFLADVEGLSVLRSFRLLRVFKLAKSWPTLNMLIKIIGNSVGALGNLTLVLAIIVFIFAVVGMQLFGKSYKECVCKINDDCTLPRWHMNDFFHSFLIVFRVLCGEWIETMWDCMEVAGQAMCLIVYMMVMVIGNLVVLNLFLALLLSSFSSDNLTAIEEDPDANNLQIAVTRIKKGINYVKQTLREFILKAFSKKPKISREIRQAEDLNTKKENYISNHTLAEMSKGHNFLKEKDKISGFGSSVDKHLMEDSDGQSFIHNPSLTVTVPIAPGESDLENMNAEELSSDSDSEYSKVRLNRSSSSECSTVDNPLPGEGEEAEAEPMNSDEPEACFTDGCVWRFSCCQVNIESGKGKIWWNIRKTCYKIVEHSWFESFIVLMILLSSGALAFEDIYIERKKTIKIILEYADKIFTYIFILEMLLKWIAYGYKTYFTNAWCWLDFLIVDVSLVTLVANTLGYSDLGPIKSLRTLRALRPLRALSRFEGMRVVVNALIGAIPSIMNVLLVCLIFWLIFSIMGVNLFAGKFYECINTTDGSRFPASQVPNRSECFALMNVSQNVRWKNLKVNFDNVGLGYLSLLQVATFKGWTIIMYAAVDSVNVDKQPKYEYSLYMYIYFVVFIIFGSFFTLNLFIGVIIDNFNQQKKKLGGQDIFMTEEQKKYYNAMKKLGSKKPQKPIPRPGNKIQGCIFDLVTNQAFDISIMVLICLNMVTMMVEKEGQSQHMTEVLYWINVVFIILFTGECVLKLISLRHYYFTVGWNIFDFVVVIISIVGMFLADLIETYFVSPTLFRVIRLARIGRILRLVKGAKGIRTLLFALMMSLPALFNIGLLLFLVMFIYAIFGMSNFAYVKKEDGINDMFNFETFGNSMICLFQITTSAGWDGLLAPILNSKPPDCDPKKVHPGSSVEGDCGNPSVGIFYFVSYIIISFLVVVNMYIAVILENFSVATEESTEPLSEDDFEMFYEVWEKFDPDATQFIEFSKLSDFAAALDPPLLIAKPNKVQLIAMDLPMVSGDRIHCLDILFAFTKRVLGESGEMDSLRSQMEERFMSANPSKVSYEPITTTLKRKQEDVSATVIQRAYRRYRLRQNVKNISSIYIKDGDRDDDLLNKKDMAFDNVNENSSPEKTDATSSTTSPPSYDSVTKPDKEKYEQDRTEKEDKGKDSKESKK

For the compound `[2H]C([2H])([2H])C([2H])(Oc1ncc(Oc2cc(F)c(C(=O)NS(C)(=O)=O)cc2Cl)cc1Cl)C([2H])([2H])[2H]` (single isomer, unassigned) [Example 42, 5-chloro-4-({5-chloro-6-[d7-propan-2-yloxy]pyridin-3-yl}oxy)-2-fluoro-N-(methylsulfonyl)benzamide], the IC50 was 31 nM. The value for `[2H]C(C)(C)Oc1ncc(Oc2cc(F)c(C(=O)NS(C)(=O)=O)cc2Cl)cc1Cl` (single isomer, unassigned) [Example 46, 5-chloro-4-({5-chloro-6-[2-d1-propan-2-yloxy]pyridin-3-yl}oxy)-2-fluoro-N-(methylsulfonyl)benzamide] was 110 nM; that for `CC(C)COc1ncc(Oc2ccc(C(=O)NS(C)(=O)=O)cc2C#N)cc1Cl` [Example 1, 4-[(5-Chloro-6-isobutoxypyridin-3-yl)oxy]-3-cyano-N-(methylsulfonyl)benzamide] was 160 nM. On to `CS(=O)(=O)NC(=O)c1cc(F)c(Oc2cnc(OCC3CC(F)(F)C3)c(Cl)c2)cc1F` [Example 2, 4-({5-Chloro-6-[(3,3-difluorocyclobutyl)methoxy]pyridin-3-yl}oxy)-2,5-difluoro-N-(methylsulfonyl)benzamide], for which the IC50 is 91 nM. Consider `CC(C)Oc1ncc(Oc2cc(F)c(C(=O)NS(C)(=O)=O)cc2F)cc1Cl` [Example 3, 4-[(5-Chloro-6-isopropoxypyridin-3-yl)oxy]-2,5-difluoro-N-(methylsulfonyl)benzamide], for which the IC50 is 41 nM.

Consider `CS(=O)(=O)NC(=O)c1ccc(Oc2cnc(N3CCCCC3)nc2)c(Cl)c1` [Example 4, 3-Chloro-N-(methylsulfonyl)-4-[(2-piperidin-1-ylpyrimidin-5-yl)oxy]benzamide], for which the IC50 is 300 nM.

`CC(C)(F)c1ncc(Oc2cc(F)c(C(=O)NS(C)(=O)=O)cc2Cl)cc1Cl` [Example 7, 5-Chloro-4-{[5-chloro-6-(1-fluoro-1-methylethyl)pyridin-3-yl]oxy}-2-fluoro-N-(methylsulfonyl)benzamide]: the IC50 was 290 nM. Take `CC(C)Oc1ncc(Oc2cc(F)c(C(=O)NS(C)(=O)=O)cc2Cl)cc1C#N` [Example 8, 5-Chloro-4-[(5-cyano-6-isopropoxypyridin-3-yl)oxy]-2-fluoro-N-(methylsulfonyl)benzamide]: the IC50 was 240 nM. Take `CS(=O)(=O)NC(=O)c1ccc(Oc2cnc(C(F)(F)F)c(Cl)c2)cc1` [Example 9, 4-{[5-Chloro-6-(trifluoromethyl)pyridin-3-yl]oxy}-N-(methylsulfonyl)benzamide]: the IC50 was greater than 1000 nM. The value for `CS(=O)(=O)NC(=O)c1cc(Cl)c(Oc2cnc(OC3COC3)c(Cl)c2)cc1F` [Example 10, 5-Chloro-4-{[5-chloro-6-(oxetan-3-yloxy)pyridin-3-yl]oxy}-2-fluoro-N-(methylsulfonyl)benzamide] was 900 nM; that for `CC(Oc1ncc(Oc2cc(F)c(C(=O)NS(C)(=O)=O)cc2F)cc1Cl)C(F)(F)F` (centres unmarked) [Example 12, 4-{[5-Chloro-6-(2,2,2-trifluoro-1-methylethoxy)pyridin-3-yl]oxy}-2,5-difluoro-N-(methylsulfonyl)benzamide] was 120 nM.

`CS(=O)(=O)NC(=O)c1cc(Cl)c(Oc2cnc(OCCC(F)(F)F)c(Cl)c2)cc1F` [Example 13, 5-Chloro-4-{[5-chloro-6-(3,3,3-trifluoropropoxy)pyridin-3-yl]oxy}-2-fluoro-N-(methylsulfonyl)benzamide]: the IC50 is 50 nM. As for `CC(C)COc1ncc(Oc2ccc(C(=O)NS(C)(=O)=O)cc2)cc1Cl` [Example 14, 4-[(5-Chloro-6-isobutoxypyridin-3-yl)oxy]-N-(methylsulfonyl)benzamide], the figure is 140 nM; as for `COc1ncc(Oc2cc(F)c(C(=O)NS(=O)(=O)C3CC3)cc2F)cc1Cl` [Example 15, 4-(5-Chloro-6-methoxypyridin-3-yloxy)-N-(cyclopropylsulfonyl)-2,5-difluorobenzamide diethylamine salt], 4600 nM. In the case of `CS(=O)(=O)NC(=O)c1cc(F)c(Oc2cnc(OC3CCC3)c(Cl)c2)cc1F` [Example 16, 4-(5-Chloro-6-cyclobutoxypyridin-3-yloxy)-2,5-difluoro-N-(methylsulfonyl)benzamide], the IC50 was 130 nM. As for `CCC(C)S(=O)(=O)NC(=O)c1cc(F)c(Oc2cnc(OC)c(Cl)c2)cc1F` (centres unmarked) [Example 18, N-(sec-butylsulfonyl)-4-[(5-chloro-6-methoxypyridin-3-yl)oxy]-2,5-difluorobenzamide], the figure is 970 nM; as for `CC(C)n1ncc2cc(Oc3cc(F)c(C(=O)NS(C)(=O)=O)cc3Cl)ccc21` [Example 20, 5-Chloro-2-fluoro-4-[(1-isopropyl-1H-indazol-5-yl)oxy]-N-(methylsulfonyl)benzamide], greater than 3000 nM. As for `CS(=O)(=O)NC(=O)c1cc(Cl)c(Oc2cnc(C3CC3)c(Cl)c2)cc1F` [Example 21, 5-chloro-4-[(5-chloro-6-cyclopropylpyridin-3-yl)oxy]-2-fluoro-N-(methanesulfonyl)benzamide], the figure is 30 nM; as for `CS(=O)(=O)NC(=O)c1cc(Cl)c(Oc2cnc(OCC(F)(F)C(F)F)c(Cl)c2)cc1F` [Example 22, 5-chloro-4-{[5-chloro-6-(2,2,3,3-tetrafluoropropoxy)pyridin-3-yl]oxy}-2-fluoro-N-(methanesulfonyl)benzamide], 19 nM; as for `CC(C)COc1ncc(Oc2cc(F)c(C(=O)NS(C)(=O)=O)cc2F)cc1Cl` [Example 23, 4-[(5-chloro-6-isobutoxypyridin-3-yl)oxy]-2,5-difluoro-N-(methylsulfonyl)benzamide], 39 nM. The value for `CS(=O)(=O)NC(=O)c1cc(F)c(Oc2cnc(OC3CCOCC3)c(Cl)c2)cc1F` [Example 24, 4-{[5-chloro-6-(tetrahydro-2H-pyran-4-yloxy)pyridin-3-yl]oxy}-2,5-difluoro-N-(methylsulfonyl)benzamide] was 780 nM. With `COc1ncc(Oc2cc(F)c(C(=O)NS(C)(=O)=O)cc2F)cc1Cl` [Example 25, 4-[(5-chloro-6-methoxypyridin-3-yl)oxy]-2,5-difluoro-N-(methylsulfonyl)benzamide], the IC50 is 9800 nM.

On to `CS(=O)(=O)NC(=O)c1cc(F)c(Oc2cnc(C(F)(F)F)nc2)cc1F` [Example 26, 2,5-difluoro-N-(methylsulfonyl)-4-{[2-(trifluoromethyl)pyrimidin-5-yl]oxy}benzamide], for which the IC50 was greater than 10000 nM. In the case of `CS(=O)(=O)NC(=O)c1cc(F)c(Oc2cnc(OCC(F)(F)F)c(Cl)c2)cc1F` [Example 27, 4-{[5-chloro-6-(2,2,2-trifluoroethoxy)pyridin-3-yl]oxy}-2,5-difluoro-N-(methylsulfonyl)benzamide], the IC50 is 220 nM. As for `CC1(COc2ncc(Oc3cc(F)c(C(=O)NS(C)(=O)=O)cc3F)cc2Cl)CC1` [Example 28, 4-({5-chloro-6-[(1-methylcyclopropyl)methoxy]pyridin-3-yl}oxy)-2,5-difluoro-N-(methylsulfonyl)benzamide], the figure is 33 nM; as for `CC(C)Oc1ncc(Oc2cc(F)c(C(=O)NS(C)(=O)=O)c(F)c2F)cc1Cl` [Example 29, 4-[(5-chloro-6-isopropoxypyridin-3-yl)oxy]-2,3,6-trifluoro-N-(methylsulfonyl)benzamide], 2300 nM; as for `CN1CCC(Oc2ncc(Oc3cc(F)c(C(=O)NS(C)(=O)=O)cc3Cl)cc2Cl)CC1` [Example 30, 5-chloro-4-({5-chloro-6-[(1-methylpiperidin-4-yl)oxy]pyridin-3-yl}oxy)-2-fluoro-N-(methylsulfonyl)benzamide], 7600 nM. Take `CC(C)Oc1ncc(Oc2c(F)cc(C(=O)NS(C)(=O)=O)cc2F)cc1Cl` [Example 32, 4-[(5-chloro-6-isopropoxypyridin-3-yl)oxy]-3,5-difluoro-N-(methylsulfonyl)benzamide]: the IC50 is 340 nM. The value for `CC(C)Oc1ncc(Oc2ccc(C(=O)NS(C)(=O)=O)cc2F)cc1Cl` [Example 33, 4-[(5-chloro-6-isopropoxypyridin-3-yl)oxy]-3-fluoro-N-(methylsulfonyl)benzamide] was 700 nM.

(Values after patent US8592629B2, “Sulfonamide derivatives as Nav 1.7 inhibitors” (Pfizer Limited, priority 2010, dated 2013).)
